Tests used:
[1] = test system: bone marrow-derived macrophage (BMDM) cells; test: EFAD formation in activated bone marrow-derived macrophages; type: cell-based, C57BL/6 murine; conditions: BMDM activated with Kdo2 and IFNγ
Protocol: FIG. 8 illustrates formation of EFAD in activated primary murine macrophages. Bone marrow derived macrophages were activated with Kdo2 (0.5 μg/ml) and IFNγ (200 U/ml) and EFADs were detected 1O h post activation.
(§1) Bone marrow derived macrophages were isolated from C57BL/6 mice according to the protocol developed by Davies. See Davies, J. Q. & Gordon, S. Isolation and culture of murine macrophages. Methods Mol Biol 290, 91-103 (2005).
EFADs are produced by primary macrophages isolated from mouse bone marrow. […] Thus, C57BL/6 murine primary hematopoietic stem cells were differentiated to macrophages, activated with Kdo2 and IFNγ and analyzed for the formation of EFADs. Five out of the six EFAD species (EFAD-I, 2, -3, -5 and -6) were observed which co-eluted with those produced by RAW 264.7 cells and with the available standards.

RAW264.7 cells = test: EFAD formation in activated RAW264.7 cells treated with inhibitors; type: cell-based, murine
Purified ovine COX-2 = target: T1, Purified ovine COX-2 (Ovis aries, UniProt P79208); test: COX-2 reaction with DPA ± ASA, OH-DPA formation; type: biochemical; conditions: ovine COX-2 + DPA 10 μM ± 2 mM ASA
T1 construct: Ovine placental COX-2 (Cayman 60120) was also from Cayman Chemicals; purchased Cayman Chemicals 60120; host or cells: ovine placenta
T1 sequence (P79208 17-603): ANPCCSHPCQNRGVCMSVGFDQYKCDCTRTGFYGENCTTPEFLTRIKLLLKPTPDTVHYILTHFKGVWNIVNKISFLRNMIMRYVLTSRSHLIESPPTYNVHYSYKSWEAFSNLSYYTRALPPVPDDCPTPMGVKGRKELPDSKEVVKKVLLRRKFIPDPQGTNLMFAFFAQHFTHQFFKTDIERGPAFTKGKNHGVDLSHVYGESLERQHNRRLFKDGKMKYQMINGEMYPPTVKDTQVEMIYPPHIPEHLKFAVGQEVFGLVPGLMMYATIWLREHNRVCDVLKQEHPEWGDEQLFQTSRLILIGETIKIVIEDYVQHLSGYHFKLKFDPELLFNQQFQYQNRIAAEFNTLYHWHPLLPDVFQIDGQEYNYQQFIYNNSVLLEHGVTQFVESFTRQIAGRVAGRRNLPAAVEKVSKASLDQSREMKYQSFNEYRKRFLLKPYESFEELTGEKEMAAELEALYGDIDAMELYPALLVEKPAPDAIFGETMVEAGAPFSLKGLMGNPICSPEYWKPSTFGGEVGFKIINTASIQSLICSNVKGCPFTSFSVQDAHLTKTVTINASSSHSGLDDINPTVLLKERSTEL
Protocol: The results of the COX-2 inhibition study implicate a the involvement of COX-2 in EFAD formation and motivated the development of an in vitro model of enzymatic EFAD synthesis. Purified ovine COX-2 was used to generate the EFAD-2 precursor (OH-DPA), (FIG. 7c-e), while the EFAD-I precursor, hydroxy-DHA (OH-DHA), was produced from DHA by COX-2 (FIGS. 19a and 19b).
Ovine placental COX-2 (20 U/ml) was preincubated in Tris/heme/phenol (THP) buffer ±2 mM ASA at 37° C. THP buffer, freshly prepared before each reaction, consisted of Tris*C1 (100 mM, pH 8.1), hematin (1 μM), and phenol (1 μM). The reaction was initiated by addition of the indicated fatty acids at a concentration of 10 μM. Reactions were terminated at the indicated time points by addition of ice-cold acetonitrile (9× reaction volume) and COX-2 protein was removed by centrifugation. Product formation was monitored by RP-HPLC-MS/MS in multiple reaction monitoring (MRM) mode following the loss Of CO2 (m/z 345/301 and m/z 343/299 for OH-DPA and OH-DHA, respectively).

GAPDH = GAPDH (Oryctolagus cuniculus, UniProt P46406); test: In vitro alkylation of GAPDH, mass spectrometric analysis; type: biochemical, rabbit
Text: FIG. 21 illustrates the mass spectrometric analysis of an in vitro reaction of GAPDHvith EFAD-2. Four residues were detected and confirmed-as being targets for EfAD-2 in treated rabbit GAPDH. The peptides were alkylated as Cys244 (a), His163 (b), Cys149 (c) and His328 (d). Upper panels show EFAD-2 modified peptides and lower panels show spectra from corresponding native peptide.
To more specifically test the binding of EFADs to nucleophilic residues in proteins, we tested whether GAPDH was alkylated by EFADs. This enzyme is a well-characterized target for electrophiles and becomes easily inactivated by nitrosylation, oxidation or nucleophilic addition.

[2] = test system: inducible nitric oxide synthase (iNOS); test: iNOS induction and nitrite accumulation in bone marrow-derived macrophages; type: cell-based, C57BL/6 mice; conditions: BMDMs activated with Kdo2 and IFNγ
Protocol: FIG. 24 illustrates that 17-oxoDHA and 7-oxoDPA modulate the inflammatory response. in bone marrow-derived macrophages. Cells were treated with increasing concentration of 17-oxoDHA and 17oxoDPA for 6 h and Kdo2 Lipid A (0.5 μg/ml) and IFNγ were added. Samples were collected at 12 h. (2) Nitrite levels were measured in the cell media and normalized to the total protein content: iNOS and COX-2 levels were measured in total cell lystaes. (b) IL-6, MCP-I, and IL-10 levels were measured in cell media and normalized to the total protein content.
as §1
Protein concentrations of samples were measured by BCA assay (Pierce). The following primary antibodies were used: Nrf2 (Santa Cruz, sc-722), HO—I (Assay Design, SPA-896), Nqol (Abeam, ab34173), Cox-2 (Santa Cruz, sc-1745), iNOS (BD Transduction Lab, 610332), Lamin Bl (Abeam, ab16048). Actin (detected by Sigma A2066) was used as loading control. Secondary antibodies were purchased from Santa Cruz Biotechnology.
(§2) Total nitrite and nitrate concentration was measured in cell culture media by Griess reaction using the Nitrate/Nitrite Colorimetric Assay Kit (Cayman Chemical).

NF-κB and Stat-1 = test: p65 nuclear translocation and DNA binding, Stat1 phosphorylation; type: cell-based, murine; conditions: RAW264.7
Text: The expression of iNOS and the analyzed pro-inflammatory cytokines is dependent on the activity of NF-κB and Stat-1. It has been reported that electrophilic lipids can repress the activation of these transcriptional factors either by direct adduction to the DNA binding domain of the NF-K B subunit p65 and to the inhibitor IκBα or via indirect mechanisms.

[3] = test system: inducible nitric oxide synthase (iNOS); test: iNOS induction and nitrite accumulation in activated RAW264.7 cells; type: cell-based, murine; conditions: RAW264.7 activated with Kdo2 and IFNγ
Protocol: FIG. 11 illustrates modulation of anti-oxidant and inflammatory responses by 17-oxoDHA and 17-oxoDPA. RAW264.7 cells were treated with increasing concentration of 17-oxoDHA and 17-oxoDPA. (a) Cells were harvested 1 h after treatment and Nrf2 levels were quantified in nuclear extracts, (b) Cells were harvested 18 h after treatment and HO—I and Nqol (upper band) levels were measured by western blot, (c, d) RAW264.7 cells were treated with increasing concentration of 17-oxoDHA and 17-oxoDP A for 6 h and Kdo2+IFNγ were added. Samples were collected at 12 h. IL-6, MCP-I and IL-IO levels were measured in the cell media by Quantikine ELISA Kit (R&D Systems) and normalized by the total protein content (c); Nitrite levels were measured in the cell media and normalized by the total protein content and iNOS and Cox-2 levels were measured in total cell lysates (d); (e) PPARγ beta-lactamase reporter assays were performed for Rosiglitazone, 17-OxoDPA, 17-OxoDHA, 15d-PGJ2, 17-hydroxyDHA, DPA, and DHA with concentrations ranging from 0.5-10,000 nM.
For activation experiments RAW 264.7 cells were seeded, incubated overnight, and treated at approximately 80% confluence with the indicated compounds 47. Non-activated controls were treated with vehicle alone. During activation, cells were maintained in an activation medium (SMEM) of Minimum Essential Medium Eagle (Cellgro, 17-305)+2% FBS supplemented with L-glutamine (584 mg/L), Na-pyruvate (110 mg/L) and Hepes (3.57 g/L, pH 7.4). For inhibition studies, inhibitors were added to the medium at the time of activation and MTT assays were used to confirm cell viability. Cells were harvested 20 h post activation (unless otherwise indicated) in 50 mM phosphate buffer (pH 7.4) and snap frozen in liquid N2. […]
Protein concentrations of samples were measured by BCA assay (Pierce). […] Actin (detected by Sigma A2066) was used as loading control. […]
as §2

Chain of GAPDH (P46406 whole entry): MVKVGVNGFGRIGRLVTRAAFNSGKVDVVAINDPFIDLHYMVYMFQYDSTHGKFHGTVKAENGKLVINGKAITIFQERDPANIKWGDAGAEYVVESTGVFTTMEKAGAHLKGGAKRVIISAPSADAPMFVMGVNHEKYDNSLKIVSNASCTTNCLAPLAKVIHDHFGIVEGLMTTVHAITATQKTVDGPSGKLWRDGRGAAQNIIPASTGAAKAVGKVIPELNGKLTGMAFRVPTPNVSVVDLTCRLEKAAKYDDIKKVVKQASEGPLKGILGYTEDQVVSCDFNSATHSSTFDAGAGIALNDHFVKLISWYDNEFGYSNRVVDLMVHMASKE

| p65 nuclear translocation and DNA binding, Stat1 phosphorylation (NF-κB and Stat-1) | SMILES | extent of EFAD formation with ASA [1] | increase of EFAD formation (RAW264.7 cells; ASA 200 μM, all EFADs except EFAD-4 and EFAD-6) | rate and extent of formation of OH-DPA (Purified ovine COX-2) | adduct formation with GAPDH residues (GAPDH) | iNOS induction and accumulation of nitrite in the cell media [2] | EFAD level +Celecoxib (↓COX) (RAW264.7 cells; RAW264.7 activated with Kdo2 and IFNγ, 20 h post activation) | EFAD level +Aspirin (↓COX) (RAW264.7 cells; RAW264.7 activated with Kdo2 and IFNγ, ASA 200 μM, 20 h post activation) | EFAD level +ETYA (↓COX) (RAW264.7 cells; RAW264.7 activated with Kdo2 and IFNγ, ETYA 25 μM, 20 h post activation) | EFAD level +MAFP (↓PLA2) (RAW264.7 cells; RAW264.7 activated with Kdo2 and IFNγ, MAFP 25 μM, 20 h post activation) | EFAD level +Diclofenac (↓COX) (RAW264.7 cells; RAW264.7 activated with Kdo2 and IFNγ, diclofenac 1 μM, 20 h post activation) | EFAD level +Genisteine (RAW264.7 cells; RAW264.7 activated with Kdo2 and IFNγ, genistein 25 μM, 20 h post activation) | EFAD level +Ibuprofen (↓COX) (RAW264.7 cells; RAW264.7 activated with Kdo2 and IFNγ, ibuprofen 100 μM, 20 h post activation) | EFAD level +Indomethacin (↓COX) (RAW264.7 cells; RAW264.7 activated with Kdo2 and IFNγ, indomethacin 25 μM, 20 h post activation) | iNOS induction and accumulation of nitrite in the cell media [3] |
| --- | --- | --- | --- | --- | --- | --- | --- | --- | --- | --- | --- | --- | --- | --- | --- |
|  | CC(=O)Oc1ccccc1C(=O)O [ASA, acetyl salicylic acid] | increased about two to three fold | about 2.5 fold | increased the rate and extent of formation |  |  |  |  |  |  |  |  |  |  |  |
| did not affect | CCC=CCC=CC=CC(=O)CC=CCC=CCCCCCC(=O)O (mixture of isomers) [EFAD-2] |  |  |  | readily formed adducts with Cys244, Cys149, His 163 and His328 | strongly and dose-dependently repressed | ↓ | ↑ | ↓ | ↓ | ↓ | ↓ | ↓ | ↓ | strongly and dose-dependently repressed |

— patent US20150018417A1, “FATTY ACIDS AS ANTI-INFLAMMATORY AGENTS” (University of Pittsburgh - Of the Commonwealth System of …, priority 2012, published 2015)
